Measured values from PubChem BioAssay (NCI).
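1) Cells in 96-well plates. 2) Compound, 48 h, 5 concentrations. 3) Linear interpolation between surrounding doses. 4) Unreached endpoint = highest concentration. The concentration for full growth arrest is given as TGI.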

Columns and labels:
Assay in all cases: growth of human tumour cells (NCI), 48 h
LOX IMVI melanoma = system: LOX IMVI melanoma
MDA-MB-231 breast = system: MDA-MB-231 breast
NCI-H460 lung = system: NCI-H460 lung
NCI/ADR-RES ovarian = system: NCI/ADR-RES ovarian
OVCAR-8 ovarian = system: OVCAR-8 ovarian
RPMI-8226 leukemia = system: RPMI-8226 leukemia
SK-MEL-28 melanoma = system: SK-MEL-28 melanoma
RXF 393 renal = system: RXF 393 renal
SNB-75 CNS = system: SNB-75 CNS
UACC-62 melanoma = system: UACC-62 melanoma

Row | Compound | TGI (LOX IMVI melanoma) [µM] | TGI (MDA-MB-231 breast) [µM] | TGI (NCI-H460 lung) [µM] | TGI (NCI/ADR-RES ovarian) [µM] | TGI (OVCAR-8 ovarian) [µM] | TGI (RPMI-8226 leukemia) [µM] | TGI (SK-MEL-28 melanoma) [µM] | TGI (RXF 393 renal) [µM] | TGI (SNB-75 CNS) [µM] | TGI (UACC-62 melanoma) [µM]
1 | O=C(O)c1c(CC(Cc2ccc3c(c2)CCC3)C(=O)O)ccc2c1CCC2 (stereo unspecified) | > 100 | > 100 | > 100 | > 100 | > 100 | > 100 | > 100 |  |  | 
2 | C[C@H]1S[C@@H](c2ccc(Cl)cc2Cl)N(NC(=O)c2ccncc2)C1=O |  | > 100 | > 100 | > 100 | > 100 | > 100 | > 100 | > 100 | > 100 | > 100
3 | CC(C)(C)C(=O)Nc1c(C=O)ccc2[nH]cnc12 | > 100 | > 100 | > 100 | > 100 | > 100 | > 100 | > 100 | > 100 | > 100 | 
4 | CC1OC(OC2C(O[C@H]3CC[C@@]4(C)C(=CC[C@H]5[C@@H]6C[C@@H]7O[C@]8(CC[C@@H](C)CO8)[C@@H](C)[C@@H]7[C@@]6(C)CC[C@@H]54)C3)OC(CO)C(O)C2OC2OC(CO)C(O)C(O)C2O)C(O)C(O)C1O (stereo partly specified) | 5.9 | 2.98 |  | 4.93 | > 100 |  | 3.68 | 4.43 | 3.7 | 
5 | CC(C)CCCC(C)[C@H]1CCC(C2C[C@@H](O)[C@@H]3CC(O)[C@@H](O)C[C@]3(CO)C2=O)[C@]1(C)CCO (stereo partly specified) | 39.3 |  | 45.2 | > 100 | > 76.1 | > 100 | 40.5 | 53.3 | 48.7 | 34.5
6 | C=C(C)C1CC(=O)C(C)=C(O)C1 (stereo unspecified) | > 100 | > 100 | > 100 | > 100 | > 100 |  | > 100 |  | > 100 | > 100
7 | COC(=O)c1c2c(cc3c1CC1(Cc4cc5c(c(C=O)c4C1)CCC5)C3)CCC2 (stereo unspecified) | 56.5 | 91.7 | > 100 | > 100 | > 100 | > 100 | > 100 | > 100 | > 100 | 
8 | COC(=O)c1sc(=O)sc1SCc1cccc(CSc2sc(=O)sc2C(=O)OC)c1 | > 100 | 67.4 | > 100 | > 100 | > 100 |  | > 100 | 73.2 |  | > 100
9 | C/C(=N\Nc1nc2ccccc2s1)c1ccncn1 |  | > 46.9 | 14.9 | 1.67 | 1.03 | > 26 | > 100 | 24.7 | 24.4 | > 26.5
10 | CC1=C(C)C(=O)C(C2=CC(=O)c3ccccc3C2=O)=C(C2=CC(=O)c3ccccc3C2=O)C1=O | > 21.2 | 13.4 | 25.4 | > 100 | > 62.3 |  | 23.5 | 22.4 | 31.5 | 27.6
11 | O=C(O)CSC(CC(=O)c1ccc(Cl)cc1)c1ccc(Cl)cc1 (stereo unspecified) | 40.1 | > 100 | > 100 | > 100 | 57 | 61.2 |  |  | > 100 | > 100
12 | Cc1c(C)c2c(c(N)c1C#N)C(=O)N(N)C2=O |  | > 100 | > 100 | > 100 | > 100 | > 100 | > 100 | > 100 | > 100 | > 100
13 | COP(=O)(OC)OCN(C)CC/C=C(\C)CC/C=C(\C)CCC=C(C)C | 29.3 | 56.3 | 23.9 | 30.5 | 29.5 | 28.3 | 32.6 | 49.1 | 28 | 
14 | Cn1/c(=N\N=C2\C=C3CCCCC3(C)CC2)sc2ccccc21 (stereo unspecified) | > 100 | > 100 | > 100 | > 100 | > 100 |  | > 100 | > 100 | > 100 | > 100
15 | COC(=O)C1=C(CCCCO[Si](C)(C)C(C)(C)C)NC(=O)N2[C@H](CCOCc3ccccc3)CC[C@@H]12 |  | > 100 | > 100 | > 100 |  | > 100 | > 100 |  | > 100 | > 100
16 | CC(Nc1ccc(Cl)cc1)c1ccncc1 (stereo unspecified) | > 100 |  | > 100 | > 100 | > 100 | 98.3 | > 100 | > 100 | > 100 | 
17 | CCOC(=O)c1c(-c2ccc(OC)cc2)ccn1C | > 10 | > 10 | > 10 | > 10 | > 10 |  | > 10 | > 10 | > 10 | > 10
18 | COc1cc2c[n+]3c4c(c2c(OC)c1OC)CCCC4CC3 (stereo unspecified) |  | > 100 | > 100 | > 100 |  | > 100 | > 100 | > 100 |  | > 100
19 | Clc1ccc2c(c1)N(CCCN1CCCC13CCCCC3)c1ccccc1S2 | 26.5 | 21.5 | 21.4 | 44.5 | 42.6 | 11.3 | 30.3 | 17.6 |  | 31.1
20 | CC(=O)n1[nH]c(=O)n(-c2ccc(Cl)cc2)c1=O | > 100 | > 100 | > 100 | > 100 | > 100 | > 100 | > 100 | > 100 |  | > 100
21 | O=c1c2cc(Br)cc(Br)c2[nH]c(=S)n1-c1ccc(N=Nc2ccc(O)c3cccnc23)cc1 | > 100 | > 100 |  |  | > 100 | > 100 | > 100 | > 100 | > 100 | 
22 | C=C1CCC[C@@H](C)C(O)[C@@H]2OC(=O)C(=C)[C@@H]2C[C@@H](OC(C)=O)[C@@]2(C)CC[C@@H]1O2 (stereo partly specified) |  | 16.3 |  | 19.3 | 16.4 | > 50 | 15.1 | 12.9 | 10.1 | 11.7
23 | N#Cc1ccccc1NC(=O)C(=O)C(C(=O)c1ccccc1F)C1OC(=O)c2ccccc21 (stereo unspecified) | > 100 |  | > 100 |  | > 100 | 76.7 | > 100 | 87.6 | > 100 | > 100
